From patent US20230103791A1 (GLAXOSMITHKLINE INTELLECTUAL PROPERTY DEVELOPMENT LIMITED, priority 2019, published 2023) come the findings set out here.

Bounds are passed on as bounds.

The target of the assay is T1, human Nav1.8 (Homo sapiens, UniProt Q9Y5Y9).
T1 construct: expressed in transfected cells; host or cells: HEK293 (HEK293-Nav1.8)
T1 sequence (Q9Y5Y9 whole entry): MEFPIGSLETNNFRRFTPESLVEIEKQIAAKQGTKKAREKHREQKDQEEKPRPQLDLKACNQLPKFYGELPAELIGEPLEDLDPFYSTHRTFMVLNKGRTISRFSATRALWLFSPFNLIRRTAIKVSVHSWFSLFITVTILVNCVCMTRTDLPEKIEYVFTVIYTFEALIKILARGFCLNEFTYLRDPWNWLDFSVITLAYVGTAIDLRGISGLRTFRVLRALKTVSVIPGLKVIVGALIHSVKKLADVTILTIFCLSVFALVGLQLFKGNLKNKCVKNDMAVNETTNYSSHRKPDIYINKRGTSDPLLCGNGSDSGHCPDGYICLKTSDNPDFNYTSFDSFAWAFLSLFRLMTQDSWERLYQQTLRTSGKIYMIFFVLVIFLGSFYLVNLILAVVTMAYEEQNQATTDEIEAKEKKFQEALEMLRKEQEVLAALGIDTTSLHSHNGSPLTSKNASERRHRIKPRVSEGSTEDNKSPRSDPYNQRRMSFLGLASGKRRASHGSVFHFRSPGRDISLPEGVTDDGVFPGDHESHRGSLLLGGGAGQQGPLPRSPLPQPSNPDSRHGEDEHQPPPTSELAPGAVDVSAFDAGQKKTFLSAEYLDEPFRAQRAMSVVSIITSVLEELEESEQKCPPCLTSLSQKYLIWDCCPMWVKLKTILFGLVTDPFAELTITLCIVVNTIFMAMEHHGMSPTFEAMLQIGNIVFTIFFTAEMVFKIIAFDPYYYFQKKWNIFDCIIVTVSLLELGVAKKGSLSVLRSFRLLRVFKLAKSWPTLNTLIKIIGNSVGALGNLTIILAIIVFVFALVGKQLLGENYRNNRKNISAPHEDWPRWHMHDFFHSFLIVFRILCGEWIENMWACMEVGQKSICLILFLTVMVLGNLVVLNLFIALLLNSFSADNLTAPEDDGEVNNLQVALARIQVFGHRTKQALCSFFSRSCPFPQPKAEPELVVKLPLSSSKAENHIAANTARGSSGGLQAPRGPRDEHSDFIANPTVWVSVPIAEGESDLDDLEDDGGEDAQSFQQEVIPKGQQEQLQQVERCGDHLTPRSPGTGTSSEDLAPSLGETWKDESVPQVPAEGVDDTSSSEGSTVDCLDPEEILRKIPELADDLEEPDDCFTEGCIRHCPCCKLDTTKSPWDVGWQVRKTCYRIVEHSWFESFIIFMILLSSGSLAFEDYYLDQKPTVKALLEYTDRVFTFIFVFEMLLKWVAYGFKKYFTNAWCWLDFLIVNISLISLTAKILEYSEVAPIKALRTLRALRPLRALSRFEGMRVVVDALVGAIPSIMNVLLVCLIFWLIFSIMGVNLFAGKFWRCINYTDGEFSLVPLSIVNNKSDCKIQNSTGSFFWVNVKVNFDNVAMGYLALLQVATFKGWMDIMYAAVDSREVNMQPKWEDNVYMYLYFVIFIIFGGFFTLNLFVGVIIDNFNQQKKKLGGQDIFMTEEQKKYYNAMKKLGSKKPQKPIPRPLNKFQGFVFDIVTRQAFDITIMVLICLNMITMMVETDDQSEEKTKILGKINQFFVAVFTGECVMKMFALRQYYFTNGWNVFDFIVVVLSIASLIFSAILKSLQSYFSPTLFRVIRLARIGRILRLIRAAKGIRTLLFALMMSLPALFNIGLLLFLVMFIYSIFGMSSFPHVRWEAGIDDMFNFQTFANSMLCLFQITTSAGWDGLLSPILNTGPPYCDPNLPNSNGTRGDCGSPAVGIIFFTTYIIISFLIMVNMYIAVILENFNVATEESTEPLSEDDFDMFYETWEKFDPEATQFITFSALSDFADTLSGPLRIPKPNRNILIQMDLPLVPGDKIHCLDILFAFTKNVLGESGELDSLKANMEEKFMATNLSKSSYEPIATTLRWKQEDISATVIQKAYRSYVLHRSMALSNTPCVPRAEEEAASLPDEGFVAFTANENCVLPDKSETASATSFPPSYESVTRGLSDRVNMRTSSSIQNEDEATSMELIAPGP
T1 sequence (Q07699 19-218 partner): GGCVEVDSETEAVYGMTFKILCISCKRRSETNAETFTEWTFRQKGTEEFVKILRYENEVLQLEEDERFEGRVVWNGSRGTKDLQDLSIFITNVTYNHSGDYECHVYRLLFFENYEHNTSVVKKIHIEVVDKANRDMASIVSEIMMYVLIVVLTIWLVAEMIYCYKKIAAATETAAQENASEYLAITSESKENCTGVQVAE
Put plainly: Nav1.8 sodium channels assay, QPatch 48 HTX electrophysiology in HEK293-Nav1.8 cells. The class given is cell-based. As to conditions: at least one set of experimental runs; read-out: average pIC50 value against Nav1.8 (converted). The method, boiled down:
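IC50 came from 6-8 point curves of P2 current amplitude, normalized to baseline and a positive reference, and corrected for run-down using vehicle-only wells. Automated patch clamp used HEK293-Nav1.8 (with Navβ1 and TREK1) at pH 7.4 outside and CsF-based solution inside. An 8 s inactivating step at −46 mV preceded the 0 mV test pulse, repeated at 0.07 Hz.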
For orientation: The patch-clamp technique gives a direct electrical read-out from membranes.
`Cc1[nH]c(=O)ccc1N1CN(c2ccc(F)cc2C(C)C)c2ccc(Cl)cc2C1=O` [Example 76, 6-chloro-1-(4-fluoro-2-isopropylphenyl)-3-(2-methyl-6-oxo-1,6-dihydropyridin-3-yl)-2,3-dihydroquinazolin-4(1H)-one]: the IC50 was ≤ 100 nM.

`Cc1[nH]c(=O)ccc1N1CN(c2ccc(F)c(O)c2C)c2cc(C(F)(F)F)ccc2C1=O` [Example 77, 1-(4-fluoro-3-hydroxy-2-methylphenyl)-3-(2-methyl-6-oxo-1,6-dihydropyridin-3-yl)-7-(trifluoromethyl)-2,3-dihydroquinazolin-4(1H)-one]: the IC50 was 126 to 631 nM.

Regarding `Cc1cc(F)ccc1N1CN(c2ccc(=O)[nH]c2)C(=O)c2c1ccc(Cl)c2F` [Example 78, 6-chloro-5-fluoro-1-(4-fluoro-2-methylphenyl)-3-(6-oxo-1,6-dihydropyridin-3-yl)-2,3-dihydroquinazolin-4(1H)-one], the IC50 is 126 to 631 nM.

For the compound `Cc1cc(F)ccc1N1CN(c2ccc(=O)[nH]c2C)C(=O)c2c1ccc(Cl)c2F` [Example 79, 6-chloro-5-fluoro-1-(4-fluoro-2-methylphenyl)-3-(2-methyl-6-oxo-1,6-dihydropyridin-3-yl)-2,3-dihydroquinazolin-4(1H)-one], the IC50 is ≤ 100 nM.

With `Cc1cc(F)ccc1N1CN(c2ccc(=O)[nH]c2C)C(=O)c2ccc(S(C)(=O)=O)cc21` [Example 80, 1-(4-fluoro-2-methylphenyl)-3-(2-methyl-6-oxo-1,6-dihydropyridin, 3-yl)-7-(methylsulfonyl)-2,3-dihydroquinazolin-4(1H)-one], the IC50 is 794 to 7940 nM.

As to `CCc1cc(F)ccc1N1CN(c2ccc(=O)[nH]c2C)C(=O)c2cc(Cl)ccc21` [Example 81, 6-chloro-1-(2-ethyl-4-fluorophenyl)-3-(2-methyl-6-oxo-1,6-dihydropyridin-3-yl)-2,3-dihydroquinazolin-4(1H)-one], the IC50 was ≤ 100 nM.

As to `Cc1cc(=O)[nH]c(C)c1N1CN(c2ccc(F)cc2C(C)C)c2ccc(Cl)cc2C1=O` [Example 82, 6-chloro-3-(2,4-dimethyl-6-oxo-1,6-dihydropyridin-3-yl)-1-(4-fluoro-2-isopropylphenyl)-2,3-dihydroquinazolin-4(1H)-one], the IC50 was 126 to 631 nM.

`CCc1[nH]c(=O)ccc1N1CN(c2ccc(F)cc2C(C)C)c2cc(C(F)(F)F)ccc2C1=O` [Example 83, 3-(2-ethyl-6-oxo-1,6-dihydropyridin-3-yl)-1-(4-fluoro-2-isopropylphenyl)-7-(trifluoromethyl)-2,3-dihydroquinazolin-4(1H)-one]: the IC50 is ≤ 100 nM.

For the compound `Cc1cc(F)ccc1N1CN(c2c[nH]c(=O)cn2)C(=O)c2ccc(C(F)(F)F)cc21` [Example 84, 1-(4-fluoro-2-methylphenyl)-3-(5-oxo-4,5-dihydropyrazin-2-yl)-7-(trifluoromethyl)-2,3-dihydroquinazolin-4(1H)-one], the IC50 was 794 to 7940 nM.

With `Cc1cc2c(cc1F)C(=O)N(c1ccc(=O)[nH]c1C)CN2c1ccc(F)cc1C` [Example 85, 6-fluoro-1-(4-fluoro-2-methylphenyl)-7-methyl-3-(2-methyl-6-oxo-1,6-dihydropyridin-3-yl)-2,3-dihydroquinazolin-4(1H)-one], the IC50 was ≤ 100 nM.

For `Cc1[nH]c(=O)ccc1N1CN(c2ccccc2)c2cc(C(F)(F)F)ccc2C1=O` [Example 86, 3-(2-methyl-6-oxo-1,6-dihydropyridin-3-yl)-1-phenyl-7-(trifluoromethyl)-2,3-dihydroquinazolin-4(1H)-one], the IC50 was 794 to 7940 nM.

On to `Cc1ccccc1N1CN(c2ccc(=O)[nH]c2C)C(=O)c2ccc(C(F)(F)F)cc21` [Example 87, 3-(2-methyl-6-oxo-1,6-dihydropyridin-3-yl)-1-(o-tolyl)-7-(trifluoromethyl)-2,3-dihydroquinazolin-4(1H)-one], for which the IC50 is ≤ 100 nM.

Take `Cc1cc(F)ccc1N1CN(c2ccc(=O)[nH]c2C)C(=O)c2c(Cl)cccc21` [Example 88, 5-chloro-1-(4-fluoro-2-methylphenyl)-3-(2-methyl-6-oxo-1,6-dihydropyridin-3-yl)-2,3-dihydroquinazolin-4(1H)-one]: the IC50 was 126 to 631 nM.

With `Cc1cc(F)ccc1N1CN(c2ccc(=O)[nH]c2C)C(=O)c2c(C)cccc21` [Example 89, 1-(4-fluoro-2-methylphenyl)-5-methyl-3-(2-methyl-6-oxo-1,6-dihydropyridin-3-yl)-2,3-dihydroquinazolin-4(1H)-one], the IC50 was ≤ 100 nM.

On to `Cc1cc(F)ccc1N1CN(c2ccc(=O)[nH]c2C2CC2)C(=O)c2ccc(C(F)(F)F)cc21` [Example 90, 3-(2-cyclopropyl-6-oxo-1,6-dihydropyridin-3-yl)-1-(4-fluoro-2-methylphenyl)-7-(trifluoromethyl)-2,3-dihydroquinazolin-4(1H)-one], for which the IC50 was ≤ 100 nM.

In the case of `COc1cc(F)ccc1N1CN(c2ccc(=O)[nH]c2C)C(=O)c2cc(Cl)ccc21` [Example 91, 6-chloro-1-(4-fluoro-2-methoxyphenyl)-3-(2-methyl-6-oxo-1,6-dihydropyridin-3-yl)-2,3-dihydroquinazolin-4(1H)-one], the IC50 was ≤ 100 nM.

Regarding `Cc1cc(F)ccc1N1CN(c2cc(=O)[nH]n2C)C(=O)c2ccc(C(F)(F)F)cc21` [Example 92, 1-(4-fluoro-2-methylphenyl)-3-(2-methyl-5-oxo-2,5-dihydro-1H-pyrazol-3-yl)-7-(trifluoromethyl)-2,3-dihydroquinazolin-4(1H)-one], the IC50 was 126 to 631 nM.

Turning to `Cc1[nH]c(=O)ccc1N1CN(c2ccc(F)cc2C(C)C)c2cc(F)ccc2C1=O` [Example 93, 7-fluoro-1-(4-fluoro-2-isopropylphenyl)-3-(2-methyl-6-oxo-1,6-dihydropyridin-3-yl)-2,3-dihydroquinazolin-4(1H)-one], the IC50 was ≤ 100 nM.

Regarding `Cc1cc(F)ccc1N1CN(c2c(C)nc(=O)[nH]c2C)C(=O)c2ccc(C(F)(F)F)cc21` [Example 94, 3-(4,6-dimethyl-2-oxo-1,2-dihydropyrimidin-5-yl)-1-(4-fluoro-2-methylphenyl)-7-(trifluoromethyl)-2,3-dihydroquinazolin-4(1H)-one], the IC50 was 794 to 7940 nM.

For the compound `Cc1[nH]c(=O)ccc1N1CN(c2ccc(F)cc2C(C)(C)C)c2ccc(Cl)cc2C1=O` [Example 95, 1-(2-(tert-butyl)-4-fluorophenyl)-6-chloro-3-(2-methyl-6-oxo-1,6-dihydropyridin-3-yl)-2,3-dihydroquinazolin-4(1H)-one], the IC50 was ≤ 100 nM.

As to `Cc1[nH]c(=O)ccc1N1CN(c2ccc(F)c(F)c2C)c2ccc(C(F)(F)F)cc2C1=O` [Example 96, 1-(3,4-difluoro-2-methylphenyl)-3-(2-methyl-6-oxo-1,6-dihydropyridin-3-yl)-6-(trifluoromethyl)-2,3-dihydroquinazolin-4(1H)-one], the IC50 was ≤ 100 nM.

Turning to `Cc1[nH]c(=O)ccc1N1CN(c2ccc(F)cc2C(C)C)c2ccc(Cl)c(C)c2C1=O` [Example 97, 6-chloro-1-(4-fluoro-2-isopropylphenyl)-5-methyl-3-(2-methyl-6-oxo-1,6-dihydropyridin-3-yl)-2,3-dihydroquinazolin-4(1H)-one], the IC50 is ≤ 100 nM.

As for `Cc1[nH]c(=O)ccc1N1CN(c2ccc(F)cc2C(C)C)c2cc(F)c(Cl)cc2C1=O` [Example 98, 6-chloro-7-fluoro-1-(4-fluoro-2-isopropylphenyl)-3-(2-methyl-6-oxo-1,6-dihydropyridin-3-yl)-2,3-dihydroquinazolin-4(1H)-one], the IC50 is ≤ 100 nM.

Regarding `COc1ccc2c(c1)N(c1ccc(F)cc1C)CN(c1ccc(=O)[nH]c1C)C2=O` [Example 99, 1-(4-fluoro-2-methylphenyl)-7-methoxy-3-(2-methyl-6-oxo-1,6-dihydropyridin-3-yl)-2,3-dihydroquinazolin-4(1H)-one], the IC50 is ≤ 100 nM.

As to `Cc1cc(F)ccc1N1CN(c2ccc(=O)[nH]c2C)C(=O)c2cc(O)c(C(F)(F)F)cc21` [Example 100, 1-(4-fluoro-2-methylphenyl)-6-hydroxy-3-(2-methyl-6-oxo-1,6-dihydropyridin-3-yl)-7-(trifluoromethyl)-2,3-dihydroquinazolin-4(1H)-one], the IC50 was 794 to 7940 nM.

Regarding `COc1cc2c(cc1C(F)(F)F)N(c1ccc(F)cc1C)CN(c1ccc(=O)[nH]c1C)C2=O` [Example 101, 1-(4-fluoro-2-methylphenyl)-6-methoxy-3-(2-methyl-6-oxo-1,6-dihydropyridin-3-yl)-7-(trifluoromethyl)-2,3-dihydroquinazolin-4(1H)-one], the IC50 is ≤ 100 nM.

Turning to `Cc1cc(F)ccc1N1CN(c2ccc(=O)[nH]c2C)C(=O)c2cc(Cl)cnc21` [Example 102, 6-chloro-1-(4-fluoro-2-methylphenyl)-3-(2-methyl-6-oxo-1,6-dihydropyridin-3-yl)-2,3-dihydropyrido[2,3-d]pyrimidin-4(1H)-one], the IC50 was 126 to 631 nM.

Regarding `Cc1[nH]c(=O)ccc1N1CN(c2ccc(F)cc2C(C)C)c2cc(OC(F)(F)F)ccc2C1=O` [Example 103, 1-(4-fluoro-2-isopropylphenyl)-3-(2-methyl-6-oxo-1,6-dihydropyridin-3-yl)-7-(trifluoromethoxy)-2,3-dihydroquinazolin-4(1H)-one], the IC50 was ≤ 100 nM.

Take `Cc1cc(F)ccc1N1CN(c2ccc(=O)[nH]c2C)C(=O)c2cc(Cl)c(F)cc21` [Example 104, 6-chloro-7-fluoro-1-(4-fluoro-2-methylphenyl)-3-(2-methyl-6-oxo-1,6-dihydropyridin-3-yl)-2,3-dihydroquinazolin-4(1H)-one]: the IC50 was ≤ 100 nM.

On to `Cc1cc(F)ccc1N1CN(c2ccc(=O)[nH]c2C)C(=O)c2cc(Cl)c(C#N)cc21` [Example 105, 6-chloro-1-(4-fluoro-2-methylphenyl)-3-(2-methyl-6-oxo-1,6-dihydropyridin-3-yl)-4-oxo-1,2,3,4-tetrahydroquinazoline-7-carbonitrile], for which the IC50 was ≤ 100 nM.
